What all share (format): cell-based
One experiment relates to A2780/WT. Put plainly: Cytotoxicity IC50 in A2780/WT cell line, 1 hour drug exposure. As to conditions: 1 hour of exposure to the drug; average of repeat experiments. As for the experimental part: (§1) All experiments are with 1 hour of exposure to the drug, IC50 in μM. The platinum compounds have been tested by the resistance factor in CP3 cell line (CP3 Rfact) and C25 cell line (C25 Rfact). The terms (CP3 Rfact) and (C25 Rfact) are determined utilizing the following equations, wherein WT stands for wild-type. CP3 Rfact=IC50 in A2780/CP3÷IC50 in A2780/WT C25 Rfact=IC50 in A2780/C25÷IC50 in A2780/WT
(§2) In addition, Compounds with “ - - - ” in the IC50 column indicate the IC50s are >100 μM.

Another experiment concerns A2780/CP3. The experiment in a line: Cytotoxicity IC50 in A2780/CP3 cell line, 1 hour drug exposure. As to conditions: for IC50: 1 hour of exposure to the drug, average of repeat experiments, dash = IC50 >100 μM; for CP3 Rfact: resistance factor = IC50 in A2780/CP3 ÷ IC50 in A2780/WT. How it is done: as §1, §2
The next experiment has as its system A2780/C25. Put plainly: Cytotoxicity IC50 in A2780/C25 cell line, 1 hour drug exposure. As to conditions: for IC50: 1 hour of exposure to the drug, average of repeat experiments; for C25 Rfact: resistance factor = IC50 in A2780/C25 ÷ IC50 in A2780/WT. How it is done:
as §1, §2

The source of these data is patent US7777060B2, “Platinum analogs with bis-nitrile-containing ligands” (BioNumerik Pharmaceuticals, Inc., priority 2007, dated 2010).

In the experiment with A2780/WT, `N#CCCCc1ccccc1.N#CCCCc1ccccc1.[Cl][Pt@SP1][Cl]` [BNP3029/t, Trans-bis-(4-phenylbutyronitrile)dichloroplatinum (II)] returned an IC50 of 16.2 µM. In the experiment with A2780/CP3, the IC50 is 19.2 µM and the “CP3 Rfact” value turned out to be 1.19. Moreover, in the experiment on A2780/C25, it took 17.7 µM to reach half-maximal inhibition (IC50) and the “C25 Rfact” value is recorded as 1.09.

In the case of “Trans-bis(cyclopropaneacetonitrile)dichloroplatinum (II) [BNP3014/t]”, the IC50 is 68.1 µM in the experiment on A2780/WT, over 100 µM in the experiment on A2780/CP3 and 92 µM in the experiment on A2780/C25. Besides, in the experiment on A2780/C25, the “C25 Rfact” value worked out at 1.35.

Regarding `N#CCCCc1ccccc1.N#CCCCc1ccccc1.[Cl][Pt@SP1][Cl]` [BNP3029/c, Cis-bis-(4-phenylbutyronitrile)dichloroplatinum (II)], the midpoint of inhibition with A2780/WT, the IC50, lay at 4.4 µM. Also, in the experiment with A2780/CP3, it took 6.88 µM to reach half-maximal inhibition (IC50) and the “CP3 Rfact” value worked out at 1.56. For the same compound, in the experiment on A2780/C25, half-maximal inhibition (IC50) required 5.45 µM and the “C25 Rfact” value amounted to 1.24.

Regarding `N#CCCC1CCCCC1=O.N#CCCC1CCCCC1=O.[Cl][Pt@SP1][Cl]` (stereo not drawn) [BNP3020, Cis-bis[3-(2-oxo-cyclohexyl)-propionitrile]dichloroplatinum (II)], the figures for the IC50 in the experiment with A2780/WT, with A2780/CP3 and in the experiment on A2780/C25 were 51.6 µM, 84.3 µM and 61.6 µM, respectively. Also, the “CP3 Rfact” value in the experiment on A2780/CP3 is 1.63. For the same compound, the “C25 Rfact” value with A2780/C25 turned out to be 1.19.

For the compound `N#CCc1ccccc1C(F)(F)F.N#CCc1ccccc1C(F)(F)F.[Cl][Pt@SP1][Cl]` [BNP3037/t, Trans-bis-[2-(trifluoromethyl)-phenylacetonitrile]dichloroplatinum], the IC50 in the experiment on A2780/WT was 87.1 µM; with A2780/CP3, over 100 µM; with A2780/C25, 68.7 µM. Besides, the “C25 Rfact” value in the experiment with A2780/C25 is 0.79.

In turn, `Cc1ccccc1CC#[N+][Pt-2]([Cl])([Cl])[N+]#CCc1ccccc1C` [BNP3024, Cis-bis-(o-tolylacetonitrile)dichloroplatinum (II)] showed a half-maximal inhibitory concentration (IC50) in the experiment with A2780/WT of 13.9 µM. In addition, in the experiment with A2780/CP3, the IC50 came out at 18.6 µM and the “CP3 Rfact” value stood at 1.34. In the experiment with A2780/C25, half-maximal inhibition (IC50) was put at 18.7 µM and the “C25 Rfact” value is 1.34.

In turn, “Cis-bis(cyclopropaneacetonitrile)dichloroplatinum (II) [BNP3014/c]” returned an IC50 in the experiment on A2780/WT of 23.3 µM. In the experiment on A2780/CP3, 55.7 µM corresponded to half-maximal inhibition (IC50) and the “CP3 Rfact” value is on record as 2.39. In addition, in the experiment with A2780/C25, the IC50 is 45.4 µM and the “C25 Rfact” value amounted to 1.94.

For the compound `N#CC1Cc2ccccc21.N#CC1Cc2ccccc21.[Cl][Pt@SP1][Cl]` (stereo not drawn) [BNP3030, Cis-bis(bicyclo[4.2.0]octa-1(6),2,4-triene-7-carbonitrile)dichloroplatinum (II)], the IC50 with A2780/WT is 51.4 µM; in the experiment on A2780/CP3, 61.9 µM; in the experiment with A2780/C25, 58.9 µM. The “CP3 Rfact” value in the experiment with A2780/CP3 was found to be 1.20. Also, the “C25 Rfact” value with A2780/C25 was found to be 1.15.

In the case of `COC(CCC#N)c1ccccc1.COC(CCC#N)c1ccccc1.[Cl][Pt@SP1][Cl]` (stereo not drawn) [BNP3017, Cis-bis(4-methoxy-4-phenylbutyronitrile)dichloroplatinum (II)], in the experiment on A2780/WT, the IC50 was 14 µM. Moreover, in the experiment with A2780/CP3, the IC50 is 18.8 µM and the “CP3 Rfact” value is 1.34. In the experiment on A2780/C25, the IC50 was determined as 18.1 µM and the “C25 Rfact” value stood at 1.29.

For `N#CCc1ccc2c(c1)OCO2.N#CCc1ccc2c(c1)OCO2.[Cl][Pt@SP1][Cl]` [BNP3016, Cis-bis(3,4-(methylenedioxy)phenylacetonitrile)dichloroplatinum (II)], in the experiment with A2780/WT, half-maximal inhibition (IC50) required 62.4 µM. Also, in the experiment with A2780/CP3, the IC50 was determined as 75.6 µM and the “CP3 Rfact” value is reported as 1.21. Moreover, in the experiment with A2780/C25, the 50% inhibitory concentration (IC50) was 66.5 µM and the “C25 Rfact” value amounted to 1.07.

In the experiment on A2780/WT, “Trans-bis(2,6-difluoro-3-methylphenylacetonitrile)dichloroplatinum (II) [BNP3036/t]” registered an IC50 of 23.7 µM. Also, in the experiment on A2780/CP3, the half-inhibitory concentration (IC50) was 54.1 µM and the “CP3 Rfact” value amounted to 2.28. Further, in the experiment on A2780/C25, half-maximal inhibition (IC50) required 35.2 µM and the “C25 Rfact” value stood at 1.49.

The compound `[Cl][Pt-2]([Cl])([N+]#CC1CCC1)[N+]#CC1CCC1` [BNP3021, Cis-bis-(cyclobutanecarbonitrile)dichloroplatinum (II)] had an IC50 with A2780/WT of 13.9 µM. For the same compound, in the experiment with A2780/CP3, the IC50 came to 41.3 µM and the “CP3 Rfact” value amounted to 2.97. Moreover, in the experiment on A2780/C25, the IC50 was 29.2 µM and the “C25 Rfact” value came out at 2.10.

Turning to `Cc1cccc(CC#[N+][Pt-2]([Cl])([Cl])[N+]#CCc2cccc(C)c2)c1` [BNP3026, Cis-bis(m-tolylacetonitrile)dichloroplatinum (II)], the IC50 with A2780/WT worked out at 21.6 µM. Further, in the experiment on A2780/CP3, the IC50 amounted to 28.5 µM and the “CP3 Rfact” value stood at 1.32. Moreover, in the experiment with A2780/C25, the IC50 worked out at 24 µM and the “C25 Rfact” value amounted to 1.11.

Regarding “Cis-bis-[4-(trifluoromethoxy)-phenylacetonitrile]dichloroplatinum (II) [BNP3031]”, the IC50 in the experiment on A2780/WT came out at 18.4 µM. In the experiment with A2780/CP3, half-maximal inhibition (IC50) was put at 35.9 µM and the “CP3 Rfact” value came to 1.95. Further, in the experiment with A2780/C25, the IC50 came to 23.2 µM and the “C25 Rfact” value stood at 1.26.

In the case of `CCCCOCCC#N.CCCCOCCC#N.[Cl][Pt@SP1][Cl]` [BNP3022, Cis-bis(3-butoxypropanenitrile)dichloroplatinum (II)], the IC50 in the experiment on A2780/WT was 73.8 µM; in the experiment with A2780/CP3 it was over 100 µM; in the experiment on A2780/C25, 65 µM. In addition, in the experiment with A2780/C25, the “C25 Rfact” value came to 0.88.

Usually IC50 stands for the concentration that gives 50% inhibition. A lower IC50 goes with inhibition by little substance.
